Data published in publication PMC9784689, “Bioactivity Profiling of In Silico Predicted Linear Toxins from the Ants Myrmica rubra and Myrmica ruginodis” (Toxins, 2022).
Read-outs that look alike come from different tables or passages of the source. No end group written: not given here.

Assays:
MDCK II cells = settings: 48 h; for Normalized data, cell viability: MDCK II, 100 µM peptides, CellTiter-Glo, normalized to DMSO control = 100% viability
[1] = system: larvae of the greater wax moth (Galleria mellonella); test: Insecticidal activity, injection into larvae; format: in vivo; settings: G. mellonella larvae, 10 specimens; for Injected larvae surviving: injection of 5 µL of 10 mM stock in DMSO/water, at least 72 h
[2] = system: Influenza A/Hessen/1/03 (H3N2) in MDCK II cells; format: cell-based, influenza A virus; settings: 100 µM peptides, 48 h
[3] = system: Escherichia coli, Staphylococcus aureus, Staphylococcus epidermidis, Pseudomonas aeruginosa (strains 50071 and 1117), Micrococcus luteus, Listeria …; test: Antibacterial activity, statements for the whole panel of seven strains; format: cell-based; settings: 100 µM, after 48 h, MH II medium, 37 °C, OD600, triplicate
[4] = system: Influenza A/Hamburg/5/09 (H1N1) in MDCK II cells; format: cell-based, influenza A virus; settings: 100 µM peptides, 48 h
[5] = system: Influenza B/Massachusetts/71 (Yamagata lineage) in MDCK II cells; format: cell-based, influenza B virus; settings: B/Mass, 100 µM peptides, 48 h
[6] = system: Influenza B/Malaysia/2506/04 (Victoria lineage) in MDCK II cells; format: cell-based, influenza B virus; settings: B/Mal, 100 µM peptides, 48 h

Compound | Cytotoxicity (cell viability), in words (MDCK II cells; MDCK II cells, 100 µM, 1% DMSO, CellTiter-Glo luminescence, triplicate) | Normalized data, cell viability (MDCK II cells; replicate 1) [%] | Normalized data, cell viability (MDCK II cells; replicate 2) [%] | Normalized data, cell viability (MDCK II cells; replicate 3) [%] | Larvae killed (mortality) ([1]; injection (peptides 5 µL of 10 mM stock; ethanol control 10 µL), 72 h) [%] | Normalized to Aprotinin =1 (protection) ([2]; replicate 1) | Normalized to Aprotinin =1 (protection) ([2]; replicate 2) | Normalized to Aprotinin =1 (protection) ([2]; replicate 3) | Inhibition of bacterial growth, in words [3] | Normalized to Aprotinin =1 (protection) ([4]; replicate 1) | Normalized to Aprotinin =1 (protection) ([4]; replicate 2) | Normalized to Aprotinin =1 (protection) ([4]; replicate 3) | Normalized to Aprotinin =1 (protection) ([5]; replicate 1) | Normalized to Aprotinin =1 (protection) ([5]; replicate 2) | Normalized to Aprotinin =1 (protection) ([5]; replicate 3) | Normalized to Aprotinin =1 (protection) ([6]; replicate 1) | Normalized to Aprotinin =1 (protection) ([6]; replicate 2) | Normalized to Aprotinin =1 (protection) ([6]; replicate 3) | Injected larvae surviving [1] [%]
C[C@H](CCC(=O)O)C[C@H](C)C[C@H](C)C(=O)/C=C(\O)[C@H](C)C[C@H](C)C/C=C/[C@@H](C)[C@@H](O)[C@@H](C)[C@@H](O)C[C@@H]1CC[C@@](C)([C@H]2CC[C@@](C)([C@@H](C)O)O2)O1 [Ionomycin, ionomycin, reference compound] | high cytotoxicity | 0.2057 | 0.1877 | 0.1629 |  |  |  |  |  |  |  |  |  |  |  |  |  |  | 
CCO [ethanol, reference compound] |  |  |  |  | 70 |  |  |  |  |  |  |  |  |  |  |  |  |  | 
IDPKLLESLA-NH2 (C-terminus assumed) [U-MYRTX-Mrub2a] |  |  |  |  |  | 0.09958 | 0.07892 | 0.1212 | no significant inhibition of bacterial growth | 0.07403 | 0.07306 | 0.0814 | 0.008341 | 0.1091 | 0.1749 | 0.08852 | 0.1729 | 0.1453 | 
IDPKVLESLA-NH2 (C-terminus assumed) [U-MYRTX-Mrug2a] |  |  |  |  |  | 0.06351 | 0.02791 | 0.04387 | no significant inhibition of bacterial growth | -0.00333 | 0.002305 | -0.007789 | 0.01558 | 0.02606 | 0.02908 | 0.03996 | 0.0417 | 0.07904 | 
IDPKVLESLL-NH2 (C-terminus assumed) [U-MYRTX-Mrug2b] |  |  |  |  |  | 0.0328 | 0.05462 | 0.05537 | no significant inhibition of bacterial growth | 0.05063 | 0.0441 | 0.04545 | 0.01653 | 0.01885 | 0.02698 | 0.03893 | 0.02764 | 0.1043 | 80
IDRSEKTERE-NH2 (C-terminus assumed) [U-MYRTX-Mrub3a] |  |  |  |  |  | 0.1064 | 0.05676 | 0.1027 | no significant inhibition of bacterial growth | 0.05191 | 0.05042 | 0.0422 | 0.02341 | 0.02308 | 0.03331 | 0.04706 | 0.1383 | 0.1034 | 
IDSDALKSLQ-NH2 (C-terminus assumed) [U-MYRTX-Mrub4a/Mrug7a] |  |  |  |  |  | 0.05779 | 0.05634 | 0.06216 | no significant inhibition of bacterial growth | 0.0395 | 0.05779 | 0.05022 | 0.01827 | 0.02714 | 0.01553 | 0.06158 | 0.1088 | 0.1041 | 80
IDSKAIKSLQ-NH2 (C-terminus assumed) [U-MYRTX-Mrub4b/Mrug3a] |  |  |  |  |  | 0.06966 | 0.08008 | 0.07436 | no significant inhibition of bacterial growth | 0.02574 | 0.02301 | 0.02813 | 0.03499 | 0.02676 | 0.02366 | 0.05327 | 0.08884 | 0.1216 | 
IDVYFILHLP-NH2 (C-terminus assumed) [U-MYRTX-Mrug4b] |  |  |  |  |  | 0.06728 | 0.05537 | 0.07138 |  | -0.007928 |  | 0.0256 | 0.01102 | 0.01257 | 0.01675 | 0.03762 | 0.02626 | 0.09882 | 
INPKLLESL-NH2 (C-terminus assumed) [U-MYRTX-Mrug5b] |  |  |  |  |  | 0.06533 | 0.04634 | 0.07887 | no significant inhibition of bacterial growth | 0.02999 | 0.0228 | 0.007801 | 0.0139 | 0.008064 | 0.0246 | 0.03907 | 0.06268 | 0.0833 | 80
KDSDSLKSFQ-NH2 (C-terminus assumed) [U-MYRTX-Mrug6a] |  |  |  |  |  | 0.08543 | 0.06156 | 0.07217 | no significant inhibition of bacterial growth | 0.02785 | 0.0161 | 0.02305 | 0.007926 | 0.0129 | 0.01821 | 0.0613 | 0.07745 | 0.114 | 
aprotinin [reference compound] |  |  |  |  |  | 1 | 1 | 1 |  | 1 | 1 | 1 | 1 | 1 | 1 | 1 | 1 | 1 | 
